Read-outs that look alike come from different tables or passages of the source.
Legend:
[1] = test system: dogs; experiment: Inotropic potency in anesthetized dogs and conscious dogs with implanted cardiovascular transducers; type: in vivo; conditions: for ED50: read-out: Cardiac Contractile Potency mcg/kg ED50; for Blood Pressure Change mm/hg at ED50 / Heart rate Change beats/min. at ED50: at the contractile ED50
Description: The heart rate, arterial pressure, cardiac output, and the derivative of left ventricular pressure (which is the index of cardiac contractility), were measured.

[2] = test system: dogs; experiment: Physical conditioning of dogs (treadmill exercise, chronic oral dosing); type: in vivo
From the text: In a typical experiment, a group of ten dogs were implanted with miniature pressure transducers in their left ventricle so that measurements of heart rate, systolic pressure and the derivative of left ventricular pressure (the index of cardiac contractility) could be made. The dogs were trained to walk on a treadmill. Five of the dogs were randomly selected to receive a compound of this invention, for instance R,R-N-[2-(4-hydroxyphenyl)-2-hydroxyethyl]-1-methyl-3-(4-hydroxyphenyl)propylaminium chloride. The test animals received saline filled capsules during the first week of the test. During the second and third weeks, the dogs received the test compound orally at a dose of 10 mcg./kg. twice each day. The dosage was increased to 40 mcg./kg. twice each day for the fourth week, and increased to 60 mcg./kg. twice each day through weeks five to eleven. The other five dogs received saline filled capsules throughout the study. Once each week, the animals' response to exercise on . the treadmill was evaluated. Resting data were obtained by permitting the dogs to lie on the treadmill before turning it on. The treadmill then was run at a speed of 3.5 kilometers/hr., with the dogs walking at this speed with no elevation for 5 min., and then for 5 min. at a 20% incline. During the eleventh week of such test, the dogs were made to walk on a 40% incline, thus providing sufficient stress to increase plasma lactic acid and catecholamines. Blood samples prior to each exercise and within two minutes of completing the exercise were taken from the jugular vein.
After several weeks, the dogs were anesthetized and measurements of ventricular function and skeletal muscle blood flow and enzymes were made.

[3] = Canis lupus familiaris, dogs, dose giving a 50% increase in contractile force (derivative of left ventricular pressure)

SMILES | ED50 [1, 3] | Blood Pressure Change mm/hg at ED50 ([1]; dogs) | Heart rate Change beats/min. at ED50 ([1]; dogs) | other results
C[C@@H](CCc1ccc(O)cc1)NC[C@H](O)c1ccccc1 [R,S-N-[2-phenyl-2-hydroxyethyl)-1-methyl-3-(4-hydroxyphenyl)propylamine, reference compound] | 350 µg/kg | -20 mm/hg | 18 beats/min. | –
C[C@H](CCc1ccc(C(N)=O)cc1)NC[C@H](O)c1ccccc1 [R,R-N-(2-Phenyl-2-hydroxyethyl)-l-methyl-3-(4-aminocarbonylphenyl)propylamine] | 7 µg/kg | +3 mm/hg | 15 beats/min. | –
C[C@H](CCc1ccc(O)cc1)NC[C@H](O)c1ccc(O)cc1.Cl [R,R-N-[2-(4-Hydroxyphenyl)-2-hydroxyethyl]-1-methyl-3-(4-hydroxyphenyl)propylaminium chloride] | – | – | – | Skeletal Muscle Blood Flow (ml./min./100 g.) ([2]; conditioned dogs, anesthetized after several weeks, p<0.01): 2.5 ml./min./100 g.; Heart Rate (beats/min.) at rest ([2]; conditioned dogs, at rest, p<0.01): 55 beats/min.; Heart Rate (beats/min.) at 20° walk ([2]; conditioned dogs, treadmill walk at 20°, p<0.01): 150 beats/min.; Blood Lactic Acid (mg.%) at rest ([2]; dogs, oral 10 then 40 then 60 mcg./kg. twice each day over eleven weeks, at rest, p<0.01 printed for lactic acid): 5.2 mg.%; Plasma Norepinephrine (picograms/ml.) at rest ([2]; dogs, oral 10 then 40 then 60 mcg./kg. twice each day over eleven weeks, at rest, p<0.05 printed for norepinephrine): 235 picograms/ml.; Blood Lactic Acid (mg.%) during exercise ([2]; dogs, oral 10 then 40 then 60 mcg./kg. twice each day over eleven weeks, during treadmill exercise, p<0.01 printed for lactic acid): 6.3 mg.%; Plasma Norepinephrine (picograms/ml.) during exercise ([2]; dogs, oral 10 then 40 then 60 mcg./kg. twice each day over eleven weeks, during treadmill exercise, p<0.05 printed for norepinephrine): 200 picograms/ml.; Succinic Dehydrogenase Activity (µM/mgP/min.) ([2]; skeletal muscle of conditioned dogs, p<0.01): 3.3 µM/mgP/min.
C[C@@H](CCc1ccc(O)cc1)NC[C@H](O)c1ccc(O)cc1 [R,S-N-[2-(4-hydroxyphenyl)-2-hydroxyethyl]-1-methyl-3-(4-hydroxyphenyl)propylamine, reference compound] | – | -2 mm/hg | 15 beats/min. | ED50 ([1]; Canis lupus familiaris): 11 µg/kg
C[C@H](CCc1ccc(O)cc1)NC[C@H](O)c1ccc(O)cc1 [R,R-N-[2-(4-hydroxyphenyl)-2-hydroxyethyl]-1-methyl-3-(4-hydroxyphenyl)propylamine] | – | -5 mm/hg | 15 beats/min. | ED50 ([1]; Canis lupus familiaris): 0.32 µg/kg
C[C@@H](CCc1ccc(C(N)=O)cc1)NC[C@H](O)c1ccccc1 [R,S-N-(2-phenyl-2-hydroxyethyl)-1-methyl-3-(4-aminocarbonylphenyl)propylamine, reference compound] | – | – | – | ED (max) ([1]; Canis lupus familiaris, dogs, EDmax: a 50% increase in contractile force could not be achieved, dose giving the maximal increase, read-out: Cardiac Contractile Potency mcg/kg (EDmax)): 1980 µg/kg; Blood Pressure Change mm/hg (EDmax) ([1]; dogs, at EDmax dose): -30 (EDmax) mm/hg; Heart rate Change beats/min. (EDmax) ([1]; dogs, at EDmax dose): 24 (EDmax) beats/min.
C[C@H](CCc1ccc(O)cc1)NC[C@H](O)c1ccccc1 [R,R-N-(2-phenyl-2-hydroxyethyl)-1-methyl-3-(4-hydroxyphenyl)propylamine] | 6 µg/kg | -13 mm/hg | 15 beats/min. | –
